Consider 2 compounds from ChEMBL document CHEMBL1125816, “[123I]-2 beta-carbomethoxy-3 beta-(4-iodophenyl)tropane: high-affinity SPECT radiotracer of monoamine reuptake sites in brain” (J Med Chem, 1991).

In this assay the target is Sodium-dependent serotonin transporter (Rattus norvegicus, UniProt P31652). In words: Compound was tested for binding affinity to Serotonin transporter sites in homogenates prepared from rat cortical membranes using [3H]paroxetine as radioligand.
Sodium-dependent serotonin transporter, sequence (P31652 whole entry): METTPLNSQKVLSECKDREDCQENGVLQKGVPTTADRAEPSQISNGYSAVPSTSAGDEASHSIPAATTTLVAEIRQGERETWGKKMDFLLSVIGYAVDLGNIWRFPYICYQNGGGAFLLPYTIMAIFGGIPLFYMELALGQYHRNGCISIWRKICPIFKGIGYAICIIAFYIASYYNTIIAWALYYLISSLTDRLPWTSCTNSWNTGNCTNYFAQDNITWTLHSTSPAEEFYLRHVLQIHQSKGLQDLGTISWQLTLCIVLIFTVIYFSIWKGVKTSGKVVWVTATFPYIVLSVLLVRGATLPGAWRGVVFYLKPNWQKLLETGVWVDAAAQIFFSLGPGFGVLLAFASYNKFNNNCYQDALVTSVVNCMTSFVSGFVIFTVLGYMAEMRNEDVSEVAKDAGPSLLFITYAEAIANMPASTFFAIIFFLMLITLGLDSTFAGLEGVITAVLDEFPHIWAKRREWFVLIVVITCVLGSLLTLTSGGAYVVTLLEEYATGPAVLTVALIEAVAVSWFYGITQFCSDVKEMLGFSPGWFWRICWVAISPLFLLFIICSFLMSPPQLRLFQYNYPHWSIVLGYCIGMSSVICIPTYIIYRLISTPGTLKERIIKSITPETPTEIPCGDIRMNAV

As usually defined, the IC50 is the concentration that inhibits the measured activity by half. A low value points to greater potency. In turn, `COC(=O)[C@H]1[C@@H](c2ccc(F)cc2)C[C@H]2CC[C@H]1N2C` displayed an IC50 of 479 nM. As for `COC(=O)[C@@H]1C2CC[C@H](C[C@@H]1c1ccc(I)cc1)N2C`, the figure is 3.78 nM.
